# Measurements published in patent publication US4791215A, “Derivatives of glutamic acid and aspartic acid” (priority 1984, dated 1988).
# Assays:
# morphine analgesia = experiment: Increase in analgesia of morphine, Tail Flick Test (Experiment 1); type: in vivo, rats
# Summary of the method: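 Tail-flick latency to 75 °C radiant heat, capped at 8 s, measured in male non-fasted rats weighing 150-200 g. Percentage change per animal derived from pre-treatment baseline versus post-drug readings at 10-90 min (10, 20, 30, 45, 60, 90 min).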
# [1] = tested on: endogenous opiates analgesia; experiment: Analgesic activity of endogenous opiates released by transcutaneous shock, Tail Flick Test (Experiment 3); type: in vivo, rats
# Method: Experiment No. 3: Influence of several of the compounds of the invention on the analgesic activities of endogenous opiates released by transcutaneous shock in rats and measured by the Tail Flick Test
# The method is that described by Lewis et al. J. Neurosc. 1, 358 […]. Male rats which have not fasted and have a weight of about 200 g are used.
# The animals are stressed by the application of a 60 Hz-2.5 mA current to the front leg in pulses of a duration of 1 second every 5 seconds for 20 minutes.
# This stress regime induces the release of endogenous opiates.
# [2] = tested on: enkephalinamide (DALA) analgesia; experiment: Potentiation of DALA (enkephalinamide) analgesia, i.c.v., Tail Flick Test (Experiment 4); type: in vivo, rats; parameters: scale not given here
# Source text: Experiment No. 4: Potentiation of the analgesic activities of enkephalins induced by some of the compounds of the invention. […]
# [3] = tested on: CCK-8 induced contraction of guinea pig gall bladder; experiment: Anti-CCK activity on gall bladder strips in vitro; conditions: CCK-8 10 ng/ml
# Summary of the method: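 CCK-8 at 10 ng/ml drove isometric contraction of guinea pig gall bladder strips held at 32 °C in oxygenated Krebs (O2/CO2 95:5). Antagonism was measured at graded compound concentrations and reported as ED50, in μg/ml, for 50% inhibition of the contraction.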
# [4] = tested on: intestinal transit of carbon; experiment: Anti-spastic activity, vegetable carbon intestinal transit test; type: in vivo, mice; conditions: Mus musculus, ip; read-out: antispastic activity ED50 (dose reducing intestinal transit of carbon by 50%)
# Source text: The anti-spastic activity which the present compounds exert on the entire digestive system is also notable. Measured in mice with the vegetable carbon test (rate of transit through the stomach and the intestine), this activity is illustrated in the following table.
# claimed administered intraperitoneally in mice. Values
# expressed as the ED 50 in mg/kg, that is the dose which
# reduces the intestinal transit of carbon by 50%
# [5] = tested on: tolerance induced by morphine; experiment: Antagonism to development of tolerance to repeated morphine HCl, Tail Flick Test (Experiment 5); conditions: compound 10 mg/kg + morphine 5 mg/kg i.p.
smiles,measurement,setting,value
CCCCN(CCCC)C(=O)CCC(NC(=O)c1ccc(Cl)c(Cl)c1)C(=O)O [Compound D-2],percentage variation of latency of pain sensation,"morphine analgesia; 10', compound 10 mg/kg i.p. + morphine 2 mg/kg",85.6 ± 14.0%
same,percentage variation of latency of pain sensation,"morphine analgesia; 20', compound 10 mg/kg i.p. + morphine 2 mg/kg",98.1 ± 2.0%
same,percentage variation of latency of pain sensation,"morphine analgesia; 30', compound 10 mg/kg i.p. + morphine 2 mg/kg",95.9 ± 4.0%
same,percentage variation of latency of pain sensation,"morphine analgesia; 45', compound 10 mg/kg i.p. + morphine 2 mg/kg",96.6 ± 3.0%
same,percentage variation of latency of pain sensation,"morphine analgesia; 60', compound 10 mg/kg i.p. + morphine 2 mg/kg",95.5 ± 3.0%
same,percentage variation of latency of pain sensation,"morphine analgesia; 90', compound 10 mg/kg i.p. + morphine 2 mg/kg",87.5 ± 6.0%
same,"M (10-90) ± SE, mean percentage variation of latency","morphine analgesia; mean 10-90 min, compound 10 mg/kg i.p. + morphine 2 mg/kg",93.2 ± 5.3%
same,Power ratio with respect to morphine alone,"morphine analgesia; rat, in vivo",3.12
same,"average latency, Tail Flick","[1]; compound 1 mg/kg iv + stress, 5'",9.2 ± 0.53 s
same,"average latency, Tail Flick","[1]; compound 1 mg/kg iv + stress, 10'",7.0 ± 0.86 s
same,"average latency, Tail Flick","[1]; compound 1 mg/kg iv + stress, 15'",5.28 ± 0.64 s
same,"average latency, Tail Flick","[1]; compound 3 mg/kg iv + stress, 5'",9.6 ± 0.46 s
same,"average latency, Tail Flick","[1]; compound 3 mg/kg iv + stress, 10'",7.24 ± 0.58 s
same,"average latency, Tail Flick","[1]; compound 3 mg/kg iv + stress, 15'",5.08 ± 0.52 s
same,"analgesic activity, Tail Flick","[2]; DALA 10 + compound 0.003 μg/kg ICV, 10'",34.9
same,"analgesic activity, Tail Flick","[2]; DALA 10 + compound 0.003 μg/kg ICV, 20'",54.0
same,"analgesic activity, Tail Flick","[2]; DALA 10 + compound 0.003 μg/kg ICV, 30'",45.5
same,"analgesic activity, Tail Flick","[2]; DALA 10 + compound 0.003 μg/kg ICV, 45'",27.5
same,"analgesic activity, Tail Flick","[2]; DALA 10 + compound 0.003 μg/kg ICV, 60'",23.5
same,"analgesic activity, Tail Flick","[2]; DALA 10 + compound 0.003 μg/kg ICV, 90'",14.9
same,"MEAN analgesic activity, Tail Flick",[2]; DALA 10 + compound 0.003 μg/kg ICV,33.4
same,"analgesic activity, Tail Flick","[2]; DALA 10 + compound 0.01 μg/kg ICV, 10'",38.2
same,"analgesic activity, Tail Flick","[2]; DALA 10 + compound 0.01 μg/kg ICV, 20'",53.7
same,"analgesic activity, Tail Flick","[2]; DALA 10 + compound 0.01 μg/kg ICV, 30'",52.6
same,"analgesic activity, Tail Flick","[2]; DALA 10 + compound 0.01 μg/kg ICV, 45'",38.5
same,"analgesic activity, Tail Flick","[2]; DALA 10 + compound 0.01 μg/kg ICV, 60'",33.7
same,"analgesic activity, Tail Flick","[2]; DALA 10 + compound 0.01 μg/kg ICV, 90'",26.3
same,"MEAN analgesic activity, Tail Flick",[2]; DALA 10 + compound 0.01 μg/kg ICV,40.5
same,ED50 (concentration antagonising 50% of contracting effect of CCK-8),[3],> 200 µg/mL
same,ED50,[4],50.7 mg/kg
same,percentage variation in latency time (Effect %),[5]; 24 h,45.73%
same,percentage variation in latency time (Effect %),[5]; 48 h,59.50%
same,percentage variation in latency time (Effect %),[5]; 72 h,51.52%
same,percentage variation in latency time (Effect %),[5]; 96 h,43.40%
same,percentage variation in latency time (Effect %),[5]; 120 h,37.60%
same,percentage variation in latency time (Effect %),[5]; 144 h,21.43%
same,percentage variation in latency time (Effect %),[5]; 168 h,29.75%
same,percentage variation in latency time (Effect %),[5]; time 0,74.14%
